Structures are written as SMILES.

As usually defined, the melting point is the temperature of the solid-liquid transition. In the case of `Cc1cc(C(F)(F)C(F)(F)F)nc(N(C(N)=O)c2ccccc2[N+](=O)[O-])n1`, the melting point worked out at 156 °C.
Compound `CCc1cn2ccccc2c1S(=O)(=O)c1cc(C)c(OS(=O)(=O)c2ccc(C)cc2)c(C)c1` displayed a melting point of 161 °C.
Compound `O=C1NC(=O)C(c2ccccc2)(c2ccc(Br)cc2)N1` (stereo not drawn) had a melting point of 237 to 239 °C.
The figure for `Nc1c(Br)cc2c(c1Br)C(C(Cl)(Cl)Cl)OC(C(Cl)(Cl)Cl)O2` (stereo not drawn) is 158 to 159 °C; for `O=C(c1c(Cl)cccc1Cl)P(=O)(c1ccccc1)c1ccccc1` it is 156 to 158 °C; for `OCCCNc1nc2cc(C(F)(F)F)c(Br)cc2n2ccnc12` it is 148 to 161 °C.
To `COc1ccc(C2(CCN3CCC(C(N)=O)(c4ccccc4)CC3)CCN(C(=O)c3cc(OC)c(OC)c(OC)c3)C2)cc1OC` (stereo not drawn) belongs 60 to 62 °C; to `CCCc1nc2c(N)nc3cc(-c4ccccc4)ccc3c2n1CCCONC(=O)C(C)C`, 169 to 171 °C.
In the case of `CC(=O)NC(C(=O)O)C(c1ccc(F)cc1)c1ccc(F)cc1` (stereo not drawn), the melting point was found to be 187 °C.
The figure for `O=C(C=Cc1cccc(S(=O)(=O)NCc2cccc3ccccc23)c1)NO` is 177 °C; for `COc1cccc(CNc2nccc(-c3cc(N4CCN(CCCN5CCC5)CC4)c4cc(OC)ccc4c3)n2)c1` it is 122 to 130 °C; for `O=C1c2cccc3cccc(c23)C(=O)N1CCCCBr` it is 113 to 115 °C.
To `Cc1cc(OCc2ccc(-c3ccccc3-c3nnn(C(c4ccccc4)(c4ccccc4)c4ccccc4)n3)cc2)c(-c2cncnc2)c(C)n1` belongs 171 to 172 °C; to `CCNC(=O)N1CCc2[nH]cnc2C1CCC1CCCCC1` (stereo not drawn), 210 to 212 °C; to `CC(C)n1cc(C=O)c(-c2ccc([N+](=O)[O-])o2)n1`, 168 to 170 °C.
The figure for `COC(=O)Nc1ccc(CN2OCC(C)(C)C2=O)c(Cl)c1` is 165 to 167 °C.
Compound `CCC1(C)OC(c2ccc(S(N)(=O)=O)cc2)=C(c2ccc(OC)c(F)c2)C1=O` (stereo not drawn) came in with a melting point of 113 to 114 °C.
The figure for `CCOC(=O)C=Cc1cccc(Nc2ccc3nc[nH]c3c2)c1` is 188 to 190 °C; for `Cn1ncnc1COc1nc2c(cc1-c1cccc(F)c1)nnn2-c1c(F)cccc1F` it is 137 to 140 °C; for `CCCN1CCC(Cc2ccc3c(c2)c(Cc2ccc(C(=O)O)cc2OC)cn3C)C1=O` (stereo not drawn) it is 202 to 212 °C.
The figure for `Cc1nc(-c2cccc(Cl)c2)c(CCC(=O)O)o1` is 159 to 160 °C; for `CC(=O)Nc1c(C)cc(OC(C)=O)c(C)c1C` it is 174 to 175 °C; for `O=C(O)C1=Cc2ccc(Cl)cc2OC1C(F)(F)F` (stereo not drawn) it is 175 to 178 °C.
The figure for `CCN1c2ccccc2NC(=O)c2cccnc21` is 210 to 220 °C; for `CN1CCN(c2cc3ccccc3c(=O)[nH]2)[C@@H](CO)C1` it is 169 to 171 °C.
`Cn1c(S)nnc1COCC(=O)O`: the melting point was in the range of 155 to 156 °C.
To `COc1cccc(-c2nc3c4ccccc4ccn3n2)c1` belongs 159 to 160 °C; to `CNS(=O)(=O)c1ccc(-c2c(Cl)nc(C(F)(F)F)nc2-c2ccc(S(C)(=O)=O)cc2)cc1`, 226 to 230 °C.
The compound `O=C(c1cccs1)c1cnn2c(-c3cccc(N4CCCC4=O)c3)ccnc12` returned a melting point greater than 200 °C.
To `COc1cc2c(=O)c(OS(C)(=O)=O)cn(C)c2cc1OC` belongs 216 to 217 °C; to `Oc1ccc(-c2cc3c(O)cc(O)cc3o2)cc1`, 216 to 217 °C; to `O=C(O)c1ccc(SC(Cn2ccnc2)c2cccnc2)cc1` (stereo not drawn), 80 to 83 °C.
`CCOC(=O)CC1CCCc2cc(O)c(C(=O)c3ccccc3)cc21` (stereo not drawn): the melting point is 118 to 120 °C.
`O=C1CCc2cc(Br)ccc2O1` yielded a melting point of 103 to 105 °C.
The figure for `ON=C1CCC(O)(c2ccccc2Cc2ccccc2)CC1` (stereo not drawn) is 137 to 138 °C; for `CCCCCCCCCCOc1cc(OCCCCCCCCCC)cc(N2CC(=O)OC(=O)C2)c1` it is 62 °C.
To `Cc1noc(NC(=O)N2CCN(c3nccc(-c4cccc(F)c4)n3)CC2)c1C` belongs 161 to 162 °C.
`O=C1C2CCCCC2C(=O)N1CCS` (stereo not drawn) showed a melting point of 79 to 80 °C.
The figure for `CC1NC(=O)NN=C1c1ccc(N(C)C)cc1` (stereo not drawn) is 255 to 261 °C; for `O=C(NCCn1cncn1)c1ccc(Br)cc1` it is 160 to 162 °C; for `CC(C)c1ccc(N(Cc2ccc(N(C)C)cc2)C(=O)C2CCCc3cc(OCc4ccccc4)ccc32)cc1` (stereo not drawn) it is 107 to 109 °C.
To `C=CC[C@@H]1C[C@@H](COc2ccc(-c3ccc(C#N)cc3)cc2)NC1=O` belongs 99 to 101 °C; to `CC(=O)c1cc2c(c(C(=O)O)c1)NCCC2`, 229 °C; to `CC(=O)c1cc2c(c(CCl)c1O)CCCC2`, 88 to 90 °C.
The figure for `CCOc1ccc2c(c1)C(C)(c1ccccc1Cl)C(=O)N2S(=O)(=O)c1ccc(C(=O)NC(C)(C)C)cc1` (stereo not drawn) is 157 °C; for `CCOC(=O)C1=C(N)NC(C)=C(C(=O)OC)C1c1cccc([N+](=O)[O-])c1` (stereo not drawn) it is 124 °C; for `Cn1c(CNCC2CCOCC2)cc2cc(NC(=O)c3ccc(OC[C@@H]4CCCO4)cc3)ccc21` it is 157 to 158 °C.
`Cn1cnnc1C(N)(c1ccc(I)cc1)c1ccc2c(c1)c(-c1cccc(Cl)c1)nc1nnnn12` (stereo not drawn): the melting point is 238 °C.
To `CCCCCCCCc1cc2c(cc1/C(C)=C/c1ccc(C(=O)O)cc1)C(C)(C)CCS2(=O)=O` belongs 176 to 178 °C; to `Nc1nc2ccccc2c2c1ncn2Cc1cc(-c2ccc(F)cc2)no1`, 259 to 260 °C; to `CCCc1c(OCCCOc2ccccc2)ccc2c1OC(CCC(=O)OC)(CCC(=O)OC)CC2=O`, 100 °C.
To `COc1ccc(C2Cc3ccccc3N=C(C)N2C)cc1` (stereo not drawn) belongs 130 to 132 °C; to `Cc1noc(-c2ccc(C(=O)O)s2)n1`, 226 to 228 °C; to `COc1cc(C(=O)N2Cc3ccc(C(=O)NCc4c(CO)cnc(C)c4O)n3Cc3ccccc32)ccc1-c1ccccc1C`, 179 °C.
`O=C(OCc1ccccc1)c1ccc(Br)c(OCc2ccccc2)c1` came in with a melting point of 80.5 to 81.5 °C.
The figure for `CCCc1nc2c(N)nc3cc(OCc4ccccc4C)ccc3c2n1CC(C)C` is 228 °C.
`CCOP(=O)(CCCOc1ccc(C(=O)O)cc1)OCC` displayed a melting point of 107 to 110 °C.
Compound `O=C(O)CCc1cn(Cc2ccc(OCc3cccnc3)cc2)cc1-c1ccccc1` yielded a melting point of 131 to 132 °C.
For `OC1Cc2ccccc2Sc2cc(F)c(Cl)cc21` (stereo not drawn), the melting point lay within 69 to 71 °C.
`Cc1cc(-n2ccc(O)cc2=O)sc1C(=O)NCc1cccc(F)c1` registered a melting point of 140 to 142 °C.
The figure for `O=C1N[C@H]2[C@H](O)[C@H](O)[C@@H](O)[C@H](CO)[C@@H]2c2cc3c(cc21)OCO3` is greater than 200 °C.
Regarding `C=CCC1(CC=C)c2cc(Br)ccc2-c2ccc(N(c3ccccc3)c3ccccc3)cc21`, the melting point lay in the range of 141 to 143 °C.
To `CCCCc1nc2c(N)nc3cccnc3c2n1CCNC(=O)c1c(C)noc1C` belongs 188 to 189 °C.
As for `CN[C@H]1CC[C@H](CO)CC1`, the melting point fell in the range of 87 to 88 °C.
The figure for `CN1CCN(C(=O)N2CCN(C(=O)OC(C)(C)C)CC2)CC1` is 130 °C.
As to `Cc1nnc(-c2ccc3occ(-c4ccc(S(=O)Cc5ccccc5)cc4)c3c2)o1` (stereo not drawn), the melting point lay within 183 to 184 °C.
The figure for `O=CN(O)C(CCCO)CS(=O)(=O)c1ccc(-c2ccc(C(F)(F)F)cc2)cc1` (stereo not drawn) is 139 to 140 °C; for `O=C(O)C(=O)c1ccc(OCCOc2ccc(Cl)cc2)cc1` it is 121 to 122 °C.
To `CC1(C)Oc2ccc(C#N)cc2C(C2=C(C(O)C(N)=O)C=CCC2)=C1O` (stereo not drawn) belongs 235 to 237 °C.
`CCCCOc1ccc2sc(-c3ccccn3)nc(=O)c2c1`: the melting point was 161 to 162 °C.
To `CCCCCCCC(CCCCCC)CCOC(=O)c1ccccc1N=NN1CCOCC1` (stereo not drawn) belongs 40 to 42 °C; to `CC(C)(C)OC(=O)N1C[C@@H]([C@H]2COC(C)(C)O2)CC1=O`, 106 to 108 °C.
For `COc1ccccc1Oc1c(OC)nn(C)c1NS(=O)(=O)c1ccc(C(C)(C)C)cc1`, the melting point worked out at 188 °C.
With `CCOC(=O)c1cc(Cl)n2nc(-c3ccccc3)cc2n1`, the melting point was 135 to 137 °C.
To `CC(C)(C)OC(=O)N1CCN(C(=O)C2CCCCN2C(=O)OCc2ccccc2)CC1` (stereo not drawn) belongs 102 °C; to `CCOP(=O)(CSCCOn1cnc2c(N3C(=O)c4ccccc4C3=O)ncnc21)OCC`, 115 to 116 °C; to `CC(=O)S[C@H]1CNC(=S)C1`, 91 to 93 °C.
To `CCN(CC)C(=O)c1cc2ccccc2c(-c2cccc(C(F)(F)F)c2)n1` belongs 76 °C.
To `CC(C#N)c1cc(O)cc2cc(-c3ccc(O)cc3)oc12` (stereo not drawn) belongs 183 to 185 °C; to `CCC(O)c1cc2cc(O)c(Cl)c(Cl)c2s1` (stereo not drawn), 145 to 146 °C.
`O=C1c2ccccc2C(=O)N1Cc1ccc(/C=C/C(c2cc(Cl)cc(Cl)c2)C(F)(F)F)cc1Cl` (stereo not drawn) displayed a melting point of 141 to 143 °C.
With `CC(C)CC(CO)(CO)CC(C)C`, the melting point lay within 75 to 77 °C.
The figure for `Cc1nnc(F)c(-c2c(F)cc(F)cc2F)c1-c1cccs1` is 71 to 74 °C.
To `O=c1ncnc2cc3[nH][nH]cc3cc12` belongs 330 °C.
To `N#CC(=NOS(=O)(=O)CCCCl)c1cccs1` belongs 56 to 58 °C.
With `CCC(C(C)=CC(CNC(=O)Cc1n[nH]c(=O)c2ncccc12)=NO)[N+](=O)[O-]` (stereo not drawn), the melting point was in the range of 143 to 145 °C.
`Nc1ccc(Nc2ccc(S(=O)(=O)CCO)cc2[N+](=O)[O-])cc1S(=O)(=O)O` yielded a melting point of 204 °C.
Compound `CCC(=O)NCC1CC1c1cccc2nc(C)nn12` (stereo not drawn) showed a melting point of 118 to 119 °C.

The record behind these values is a melting point compilation (Tetko et al.; mined from patent text by program, amines drawn as free bases though some values may be those of a salt).
